≈ marks a conversion by molar mass, not a printed value. Where “and” joins values, the source holds several entries; their conditions need not be identical. Equal values may be shown once.
Assays:
Aj (Aneiliema japonica) = experiment: Example 1 field test, weed control in transplanted rice, Iri, Korea; assay type: in vivo; conditions: av. of 36 and 63 DAT
Description: (§1) In the field test 48 day-old seedlings (Watanabe variety) were transplanted to plots 2.5 × 6 m. seeded with the weed seeds indicated in Table 1. At 5 and 10 DAT periods, the herbicides were applied to the plants (now at the 1.2 and 2.0 leaf stage, respectively, of grass weed) at the indicated rate in kilograms per hectare (kg/ha). The weed control and rice injury results for 3 replications are reported in percentages as of the indicated times of observation. The percentages given in the "Perennials" column are based on the weight of the weeds at 63 DAT, i.e., 42 gms/3.6 m^2 for the weedy check.

Ci (Cyperus iria) = experiment: as above; assay type: in vivo; conditions: av. of 36 and 63 DAT
Description: as §1

[1] = tested on: Eo (Echinochloa oryzicola); experiment: as above; assay type: in vivo; conditions: av. of 36 and 63 DAT
Description: as §1

[2] = tested on: Mv (Monochoria vaginalis); experiment: as above; assay type: in vivo; conditions: av. of 36 and 63 DAT
Description: as §1

transplanted rice = experiment: Example 2 field test, crop injury; conditions: obs. 63 DAT
Description: (§2) In the tests described in the tables below, the herbicides were formulated and used in granular form in conventional manner. […] The commercial herbicide used was a granular product having 5% active ingredient.
(§3) In the field tests of the herbicide of this invention with transplanted rice, the rice seedlings were grown in conventional manner, by seeding the rice in a typical seedbed of sandy loam to clay soil of the country wherein the test was conducted. For laboratory and greenhouse work the seedlings were obtained by seeding rice in a mixture of soil, e.g., Ray silt loam, and peat in wood flats. For purposes of testing the herbicides on younger rice seedlings (infant or Dapog) the rice was usually allowed to grow for 6-15 days before lifting for transplanting. Older (ordinary) rice plants were usually grown for a period of about 2-3 weeks, or as much as about 7 weeks before lifting. Since the period of growth is dependent upon climatic conditions, a better measure of when to transplant the rice seedling is the leaf stage of growth; for infant or Dapog rice the seedling is lifted at the 1.5-2 leaf stage of growth, and for ordinary seedlings at the 2.5-5 leaf stage. The seedlings were then transplanted to the test plots for evaluation of the herbicide for injury against weed species present with the transplanted rice. The herbicides were then applied to the growth medium of the weeds and transplant rice, either preemergent or postemergent with respect to the weeds and postemergent with respect to the transplanted rice. Application times are designated in the tables as "DAT", meaning "days after transplant". Application rates given in the tables refer to the amount of active ingredient used.
Rice seedlings (ordinary) of Tainan No. 5 variety (japonica) were transplanted at 19 days of growth. Granular formulations of Herbicides A and B were applied at the 1 leaf stage of grass weed (4 DAT) and 2.5 leaf stage of grass weed (10 DAT). Observations were made at 63 DAT and results reported in Table 2 as an average of 3 replications.

[3] = tested on: Grass: Ec and Ecol (Echinochloa crusgalli, Echinochloa colonum); experiment: Example 3 field test on Dapog rice, weed control, Munoz, Philippines; assay type: in vivo; conditions: obs. 42 DAT
Description: (§4) Treatments were replicated four times.

[4] = tested on: ordinary transplanted rice; experiment: Example 4 field test, crop injury; conditions: obs. 36 DAT
Description: as §2, §3
(§5) In this example comparative field tests were conducted with Herbicides A and B on ordinary transplanted rice at Munoz, Philippines.
(§6) Twenty-one (21) day-old ordinary wet bed seedlings of the Fortuna variety were transplanted to field plots and Herbicides A and B applied at 5 DAT and 14 DAT. The field plots were overseeded with barnyardgrass (E. crusgalli) at 2 kgs/ha. Treatments were replicated four times.

[5] = tested on: ordinary transplanted rice; experiment: Example 4 field test, rice yield; assay type: in vivo, rice (Fortuna variety); conditions: in vivo
Description: as §2, §3, §5, §6

[6] = tested on: Obw (other broadleaf weeds); experiment: Example 5 field test, weed control, JAAPR, Japan; assay type: in vivo
Description: The rice seedlings were grown to the 1.7 leaf stage for infant seedlings and to the 5.5 leaf stage for ordinary seedlings. Two days after puddling the soil in which the seedlings were to be transplanted, both infant and ordinary seedlings were transplanted into plots 8.5 m^2.
The weed symbol "Obw" represents "other broadleaf weeds" of unspecified identity.

[7] = Example 10 fish toxicity, Japanese protocol; assay type: in vivo, carp; conditions: carp, in vivo, read-out: Medium Lethal Concentration
Description: In view of the importance of fish toxicological considerations, tests were conducted, using carp according to the Japanese protocol, to compare toxicity data for Herbicides A and B; results of those tests are shown in Table 10.

[8] = tested on: weeds in transplanted rice; experiment: Field tests / general herbicidal activity in transplanted rice; assay type: in vivo
[9] = tested on: weeds in ordinary transplanted rice; experiment: Example 4 field test, overall weed control; assay type: in vivo
Description: as §4

CCCCOCN(C(=O)CCl)c1c(C)cccc1C(C)(C)C [Herbicide A, n-(butoxymethyl)-6'-tert-butyl-2-chloro-o-acetotoluidide]
% Weed Control (Aj) (Aj (Aneiliema japonica); 5 DAT, 1.0 kg/ha): 81% | % Weed Control (Aj) (Aj (Aneiliema japonica); 5 DAT, 2.0 kg/ha): 86% | % Weed Control (Aj) (Aj (Aneiliema japonica); 5 DAT, .25 kg/ha): 66% | % Weed Control (Aj) (Aj (Aneiliema japonica); 5 DAT, .5 kg/ha): 84% | % Weed Control (Aj) (Aj (Aneiliema japonica); 10 DAT, 1.0 kg/ha): 79% | % Weed Control (Aj) (Aj (Aneiliema japonica); 10 DAT, 2.0 kg/ha): 88% | % Weed Control (Aj) (Aj (Aneiliema japonica); 10 DAT, .25 kg/ha): 73% | % Weed Control (Aj) (Aj (Aneiliema japonica); 10 DAT, .5 kg/ha): 79% | % Weed Control (Ci) (Ci (Cyperus iria); 5 DAT, 1.0 kg/ha): 100% | % Weed Control (Ci) (Ci (Cyperus iria); 5 DAT, 2.0 kg/ha): 95% | % Weed Control (Ci) (Ci (Cyperus iria); 5 DAT, .25 kg/ha): 85% | % Weed Control (Ci) (Ci (Cyperus iria); 5 DAT, .5 kg/ha): 95% | % Weed Control (Ci) (Ci (Cyperus iria); 10 DAT, 1.0 kg/ha): 97% | % Weed Control (Ci) (Ci (Cyperus iria); 10 DAT, 2.0 kg/ha): 93% | % Weed Control (Ci) (Ci (Cyperus iria); 10 DAT, .25 kg/ha): 74% | % Weed Control (Ci) (Ci (Cyperus iria); 10 DAT, .5 kg/ha): 98% | % Weed Control (Eo) ([1]; 5 DAT, 1.0 kg/ha): 91% | % Weed Control (Eo) ([1]; 5 DAT, 2.0 kg/ha): 94% | % Weed Control (Eo) ([1]; 5 DAT, .25 kg/ha): 86% | % Weed Control (Eo) ([1]; 5 DAT, .5 kg/ha): 93% | % Weed Control (Eo) ([1]; 10 DAT, 1.0 kg/ha): 90% | % Weed Control (Eo) ([1]; 10 DAT, 2.0 kg/ha): 92% | % Weed Control (Eo) ([1]; 10 DAT, .25 kg/ha): 82% | % Weed Control (Eo) ([1]; 10 DAT, .5 kg/ha): 88% | % Weed Control (Mv) ([2]; 5 DAT, 1.0 kg/ha): 89% | % Weed Control (Mv) ([2]; 5 DAT, 2.0 kg/ha): 82% | % Weed Control (Mv) ([2]; 5 DAT, .25 kg/ha): 72% | % Weed Control (Mv) ([2]; 5 DAT, .5 kg/ha): 80% | % Weed Control (Mv) ([2]; 10 DAT, 1.0 kg/ha): 72% | % Weed Control (Mv) ([2]; 10 DAT, 2.0 kg/ha): 83% | % Weed Control (Mv) ([2]; 10 DAT, .25 kg/ha): 53% | % Weed Control (Mv) ([2]; 10 DAT, .5 kg/ha): 80% | % Crop Injury, stand (transplanted rice; 4 DAT, 1.0 kg/ha): 0% | % Crop Injury, vigor (transplanted rice; 4 DAT, 1.0 kg/ha): 0% | % Crop Injury, stand (transplanted rice; 4 DAT, 2.0 kg/ha): 5% | % Crop Injury, vigor (transplanted rice; 4 DAT, 2.0 kg/ha): 27% | % Crop Injury, stand (transplanted rice; 4 DAT, .25 kg/ha): 0% | % Crop Injury, vigor (transplanted rice; 4 DAT, .25 kg/ha): 0% | % Crop Injury, stand (transplanted rice; 4 DAT, .5 kg/ha): 0% | % Crop Injury, vigor (transplanted rice; 4 DAT, .5 kg/ha): 0% | % Crop Injury, stand (transplanted rice; 10 DAT, 1.0 kg/ha): 3% | % Crop Injury, vigor (transplanted rice; 10 DAT, 1.0 kg/ha): 7% | % Crop Injury, stand (transplanted rice; 10 DAT, 2.0 kg/ha): 15% | % Crop Injury, vigor (transplanted rice; 10 DAT, 2.0 kg/ha): 25% | % Crop Injury, stand (transplanted rice; 10 DAT, .25 kg/ha): 0% | % Crop Injury, vigor (transplanted rice; 10 DAT, .25 kg/ha): 0% | % Crop Injury, stand (transplanted rice; 10 DAT, .5 kg/ha): 0% | % Crop Injury, vigor (transplanted rice; 10 DAT, .5 kg/ha): 2% | % Weed control, Grass (Ec and Ecol) ([3]; 5 DAT, 1.0 kg/ha): 100% | % Weed control, Grass (Ec and Ecol) ([3]; 5 DAT, 2.0 kg/ha): 100% | % Weed control, Grass (Ec and Ecol) ([3]; 5 DAT, .25 kg/ha): 100% | % Weed control, Grass (Ec and Ecol) ([3]; 5 DAT, .5 kg/ha): 100% | % Weed control, Grass (Ec and Ecol) ([3]; 14 DAT, 1.0 kg/ha): 50% | % Weed control, Grass (Ec and Ecol) ([3]; 14 DAT, 2.0 kg/ha): 90% | % Weed control, Grass (Ec and Ecol) ([3]; 14 DAT, .25 kg/ha): 0% | % Weed control, Grass (Ec and Ecol) ([3]; 14 DAT, .5 kg/ha): 50% | Crop Injury (%) ([4]; 5 DAT, 1.0 kg/ha): 0% | Crop Injury (%) ([4]; 5 DAT, 2.0 kg/ha): 60% | Crop Injury (%) ([4]; 5 DAT, .25 kg/ha): 0% | Crop Injury (%) ([4]; 5 DAT, .5 kg/ha): 0% | Crop Injury (%) ([4]; 14 DAT, 1.0 kg/ha): 0% | Crop Injury (%) ([4]; 14 DAT, 2.0 kg/ha): 30% | Crop Injury (%) ([4]; 14 DAT, .25 kg/ha): 0% | Crop Injury (%) ([4]; 14 DAT, .5 kg/ha): 0% | Yield (% of H.W. Check) [5]: 129% and 136% and 123% and 101% and 90% and 97% and 100% | rice yield vs hand weeded check [5]: only slightly lower than the hand weeded check | rice yield vs hand weeded control [5]: slightly more than the hand weeded control | control of Obw in words ([6]; 0.25 kg/ha both plots, 1.0 kg/ha ordinary): controlled completely | % Weed Control (Obw) ([6]; 1.0 kg/ha, 15 DAT, infant seedlings): 96% | % Weed Control (Obw) ([6]; 1.0 kg/ha, 15 DAT, ordinary seedlings): 100% | % Weed Control (Obw) ([6]; .25 kg/ha, 2 DAT, infant seedlings): 100% | % Weed Control (Obw) ([6]; .25 kg/ha, 2 DAT, ordinary seedlings): 100% | % Weed Control (Obw) ([6]; .5 kg/ha, 7 DAT, infant seedlings): 83% | % Weed Control (Obw) ([6]; .5 kg/ha, 7 DAT, ordinary seedlings): 82% | LC50 at 48 h ([7]; 48 hours): 1.8 µg/mL (≈ 5.52 µM) | LC50 at 96 h ([7]; 96 hours): 1.4 µg/mL (≈ 4.3 µM) | latest/optimum application stage of weeds ([8]; field tests): 2-2.5 leaf stage | control of undesirable vegetation ([8]; monocotyledons and dicotyledons): fair to excellent control | herbicidal activity in transplanted rice ([8]; presence of transplanted rice): superior herbicidal activity | selectivity vs Herbicide B in transplant rice ([8]; transplant rice cultures): more selective | control of all weeds ([9]; 5 DAT): complete control of all weeds | weed control in words ([9]; 14 DAT): dropped off | weed control vs Herbicide B ([9]; 14 DAT): more weed control
